Results: ChEMBL document CHEMBL3286226, “Discovery of thienopyrimidine-based FLT3 inhibitors from the structural modification of known IKKβ inhibitors” (Bioorg Med Chem Lett, 2014)

What was measured:
[1] = target: T1, Inhibitor of nuclear factor kappa-B kinase subunit beta (Homo sapiens, UniProt O14920)
T1 sequence (O14920 whole entry): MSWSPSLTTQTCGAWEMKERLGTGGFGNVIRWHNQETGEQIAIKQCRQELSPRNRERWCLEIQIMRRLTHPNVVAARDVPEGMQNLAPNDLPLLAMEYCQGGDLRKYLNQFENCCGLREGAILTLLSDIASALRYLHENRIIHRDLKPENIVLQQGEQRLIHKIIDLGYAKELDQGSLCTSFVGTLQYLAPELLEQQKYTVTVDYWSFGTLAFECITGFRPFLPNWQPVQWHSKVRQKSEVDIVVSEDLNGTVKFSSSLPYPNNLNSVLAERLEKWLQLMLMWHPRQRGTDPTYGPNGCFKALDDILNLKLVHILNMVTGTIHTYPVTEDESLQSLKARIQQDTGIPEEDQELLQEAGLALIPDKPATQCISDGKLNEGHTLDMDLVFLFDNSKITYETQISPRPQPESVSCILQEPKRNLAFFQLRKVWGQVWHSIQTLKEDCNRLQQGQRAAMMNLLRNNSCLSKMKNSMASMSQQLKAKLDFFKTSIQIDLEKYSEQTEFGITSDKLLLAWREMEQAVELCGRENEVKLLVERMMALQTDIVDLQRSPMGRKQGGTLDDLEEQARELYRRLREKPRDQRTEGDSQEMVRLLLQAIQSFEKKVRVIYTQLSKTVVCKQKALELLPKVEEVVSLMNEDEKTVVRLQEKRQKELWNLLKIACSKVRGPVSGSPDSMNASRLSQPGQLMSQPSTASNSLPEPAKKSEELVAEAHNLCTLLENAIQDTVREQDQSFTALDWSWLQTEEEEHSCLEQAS
Description: (§1) Inhibition of IKKbeta kinase (unknown origin) by Radioisotope system

[2] = target: T2, Receptor-type tyrosine-protein kinase FLT3 (Homo sapiens, UniProt P36888)
T2 sequence (P36888 whole entry): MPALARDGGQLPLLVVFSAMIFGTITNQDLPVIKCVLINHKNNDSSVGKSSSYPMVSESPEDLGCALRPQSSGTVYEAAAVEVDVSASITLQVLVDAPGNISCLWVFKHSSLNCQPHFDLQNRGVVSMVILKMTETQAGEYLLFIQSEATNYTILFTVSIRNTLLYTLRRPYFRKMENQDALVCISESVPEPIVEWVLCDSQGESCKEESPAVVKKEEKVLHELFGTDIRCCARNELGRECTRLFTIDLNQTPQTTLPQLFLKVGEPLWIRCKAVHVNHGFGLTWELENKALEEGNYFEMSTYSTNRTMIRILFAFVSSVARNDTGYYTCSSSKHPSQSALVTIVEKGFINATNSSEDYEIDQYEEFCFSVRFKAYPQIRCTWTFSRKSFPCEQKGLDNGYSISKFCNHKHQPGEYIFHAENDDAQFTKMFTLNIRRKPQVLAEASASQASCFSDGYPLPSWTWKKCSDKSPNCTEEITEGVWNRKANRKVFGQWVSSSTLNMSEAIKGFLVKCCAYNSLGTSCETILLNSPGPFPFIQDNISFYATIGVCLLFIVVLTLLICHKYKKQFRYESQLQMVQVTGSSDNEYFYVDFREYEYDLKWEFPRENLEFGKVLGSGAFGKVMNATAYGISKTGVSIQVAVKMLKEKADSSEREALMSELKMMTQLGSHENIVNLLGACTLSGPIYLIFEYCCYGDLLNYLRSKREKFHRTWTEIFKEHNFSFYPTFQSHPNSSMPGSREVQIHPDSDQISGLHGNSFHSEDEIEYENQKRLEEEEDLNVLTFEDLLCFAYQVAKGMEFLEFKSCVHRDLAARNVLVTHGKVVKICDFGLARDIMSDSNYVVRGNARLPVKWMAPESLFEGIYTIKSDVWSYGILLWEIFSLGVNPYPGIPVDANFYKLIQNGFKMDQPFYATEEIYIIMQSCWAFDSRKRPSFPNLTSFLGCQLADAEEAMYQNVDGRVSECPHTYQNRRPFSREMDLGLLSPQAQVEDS
Description: Inhibition of FLT3 kinase (unknown origin)

[3] = test system: RAW264.7; test: cells; conditions: Mus musculus
Description: Antiinflammatory activity against mouse RAW264.7 cells assessed as reduction of LPS-induced NO production

[4] = test system: RAW264.7; test: cells; conditions: Mus musculus; remark: listed apart in the source
Description: (§2) Antiinflammatory activity against mouse RAW264.7 cells assessed as reduction of LPS-induced TNF-alpha production

[5] = test system: RAW264.7
Description: as §2

[6] = target: T1, Inhibitor of nuclear factor kappa-B kinase subunit beta; remark: listed apart in the source
Description: as §1

[7] = target: T1, Inhibitor of nuclear factor kappa-B kinase subunit beta; remark: listed apart in the source
Description: Inhibition of IKKbeta kinase (unknown origin) by Lance ULight system

## CC1=CC(=O)N(Nc2nc(-c3cccs3)nc3scc(-c4cccc(O)c4)c23)C1=O
[1]
  IC50: Not Active
[2]
  IC50: 0.488 µM
[3]
  IC50: 1.23 µM
[4]
  IC50: 2.67 µM

## CC1=C(C)C(=O)N(Nc2ncnc3scc(-c4cccs4)c23)C1=O
[3]
  IC50: > 10 µM
[5]
  IC50: Not Active

## CC1=CC(=O)N(Nc2ncnc3scc(-c4cccs4)c23)C1=O
[3]
  IC50: 2.49 µM
[4]
  IC50: > 10 µM

## CC1=CC(=O)N(Nc2nc(-c3cccs3)nc3scc(-c4cccs4)c23)C1=O
[3]
  IC50: 2.19 µM
[4]
  IC50: 0.71 µM

## O=C1c2ccncc2C(=O)N1Nc1ncnc2scc(-c3cccs3)c12
[3]
  IC50: > 10 µM
[5]
  IC50: Not Active

## CC1=CC(=O)N(Nc2nc(-c3cccs3)nc3scc(-c4cccc(OCCN5CCOCC5)c4)c23)C1=O
[2]
  IC50: 0.54 µM
[3]
  IC50: 3.26 µM
[6]
  IC50: > 50 µM
[4]
  IC50: 2.38 µM

## CCOC(=O)Cc1csc2nc(-c3cccs3)nc(NN3C(=O)C=C(C)C3=O)c12
[7]
  IC50: > 50 µM
[1]
  IC50: Not Active
[2]
  IC50: 0.673 µM
[3]
  IC50: 5.07 µM
[4]
  IC50: 5.23 µM

## CC1=CC(=O)N(Nc2nc(-c3cccs3)nc3sccc23)C1=O
[7]
  IC50: > 50 µM
[1]
  IC50: Not Active
[3]
  IC50: 6.98 µM
[4]
  IC50: 8.95 µM

## O=C1C=CC(=O)N1Nc1ncnc2scc(-c3cccs3)c12
[3]
  IC50: > 10 µM
[5]
  IC50: Not Active

## COc1ccc(-c2nc(NN3C(=O)C=C(C)C3=O)c3c(-c4cccs4)csc3n2)cc1
[3]
  IC50: 2.79 µM
[4]
  IC50: 1.39 µM

## CC1=CC(=O)N(Nc2nc(-c3ccco3)nc3scc(-c4cccs4)c23)C1=O
[3]
  IC50: 5.25 µM
[4]
  IC50: 3.96 µM
